Assays:
[1] = target: T1, Aβ1-42 (Homo sapiens, UniProt P05067); experiment: Inhibition of Aβ1-42 self-aggregation, thioflavin-T (ThT) fluorescence assay; assay type: biochemical; conditions: 24 h; for IC50: read-out: Beta-Amyloid Aggregation IC50; for inhibition at 10 µM: single concentration of 10 μM, read-out: Beta-Amyloid Aggregation Inhibition (%)
T1 construct: Aβ1-42 peptides were purchased from Kelowna International Scientific Inc; purchased Kelowna International Scientific Inc
Procedure: Inhibition of Aβ1-42 self-aggregation was measured by thioflavin-T (ThT) fluorescence assay ([Hudson et al., 2009]). Aβ1-42 peptides were purchased from Kelowna International Scientific Inc. To avoid Aβ1-42 self-aggregation before the start of the experiment, Aβ1-42 peptides were dissolved in hexafluoroisopropanol (HFIP) to a concentration of 1 mM. The clear solution containing the dissolved peptide was then aliquoted in micro centrifuge tube. The solution was evaporated under vacuum to remove HFIP to give monomeric Aβ1-42. The monomeric Aβ1-42 was dissolved in NaOH(aq) (60 mM) to give a stock solution (1 mM). The Aβ1-42 stock solution was diluted with 50 mM phosphate buffer (containing 0.15 M NaCl, pH 7.4) before use. Fresh ThT stock solution was prepared by dissolving ThT (Sigma, T3516) in phosphate buffer and filtrated through […] Nylon syringe filter. The ThT stock solution and 400 mM ethylenediaminetetraacetic acid (EDTA) were diluted into the phosphate buffer to generate the working solution as background. A mixture of working solution (ThT final concentration: 10 μM), Aβ1-42 stock solution (Aβ1-42 final concentration: 10 μM) and the tested compounds were incubated on BioShake iQ ThermoMixer (37°C, 700 rpm) for 24 h. Fluorescence was measured by Victor 2X microplate spectrophotometer (excitation λ = 440 nm, emission λ = 486 nm), and adapted for 96-well microtiter plates. The fluorescence intensities were recorded and the percent inhibition due to the presence of the inhibitors were calculated by the following formula: (1 - IFi/IFc) × 100% where IFi and IFc were the fluorescence intensities obtained for Aβ1-42 in the presence and in the absence of inhibitors after subtracting the background, respectively. The IC50 values were calculated by the linear regression model of the data. All experiments were performed in triplicate.

[2] = target: T2, HDAC4 (Homo sapiens, UniProt P56524); experiment: HDAC fluorometric activity assay, HDAC4; assay type: biochemical; conditions: Boc-Lys(TFA)-AMC 10 μM; read-out: IC50 Class IIa HDAC4
T2 construct: Genes encoding HDAC4 (residues 648–1057) flanked with NdeI and EcoRI sites; made in house; host or cells: E. coli BL21(DE3)
Procedure: Proteins were expressed in BL21(DE3) cells by overnight induction with IPTG (1 mM) at 20–25°C and purified from cleared cell lysates by sequential chromatography on Ni-Sepharose 6 fast flow, Mono Q 5/50 GL, and Superdex 75 10/300 GL columns (GE Healthcare). Protein concentrations were quantified with Bradford Reagent (Bio-Rad).
Enzyme, inhibitors and substrate were diluted with HDAC buffer (15 mM Tris-HCl pH 8.1, 0.25 mM EDTA, 250 mM NaCl, 10% v:v glycerol). Briefly, 10 μL diluted HDAC, i.e., HeLa nuclear extract (Enzo), HDAC6 (BPS), HDAC4, HDAC5 (BPS), HDAC7 (BPS) and HDAC9 (BPS), as well as 50 μL of testing compounds at different concentrations were added to each well of a 96-well microtiter plate and pre-incubated at 30°C for 5 min. […] The fluorescence in wells without test compounds (0.1% DMSO, negative control) was set as 100% enzymatic activity and the fluorescence in wells with enzyme eliminated was set as 0% enzymatic activity. The fluorescence ratio of test compounds to negative control was defined as percentage of remaining enzyme activity. The IC50 values were calculated by linear regression of the data. All experiments were performed in triplicate.

[3] = target: HDAC5 (Homo sapiens, UniProt Q9UQL6); experiment: HDAC fluorometric activity assay, HDAC5; conditions: IC50 Class IIa HDAC5, fluorogenic HDAC class IIa substrate 10 μM
[4] = target: T3, HDAC7 (Homo sapiens, UniProt Q8WUI4); experiment: HDAC fluorometric activity assay, HDAC7; conditions: IC50 Class IIa HDAC7, fluorogenic HDAC class IIa substrate 10 μM
T3 sequence (Q8WUI4 1-952): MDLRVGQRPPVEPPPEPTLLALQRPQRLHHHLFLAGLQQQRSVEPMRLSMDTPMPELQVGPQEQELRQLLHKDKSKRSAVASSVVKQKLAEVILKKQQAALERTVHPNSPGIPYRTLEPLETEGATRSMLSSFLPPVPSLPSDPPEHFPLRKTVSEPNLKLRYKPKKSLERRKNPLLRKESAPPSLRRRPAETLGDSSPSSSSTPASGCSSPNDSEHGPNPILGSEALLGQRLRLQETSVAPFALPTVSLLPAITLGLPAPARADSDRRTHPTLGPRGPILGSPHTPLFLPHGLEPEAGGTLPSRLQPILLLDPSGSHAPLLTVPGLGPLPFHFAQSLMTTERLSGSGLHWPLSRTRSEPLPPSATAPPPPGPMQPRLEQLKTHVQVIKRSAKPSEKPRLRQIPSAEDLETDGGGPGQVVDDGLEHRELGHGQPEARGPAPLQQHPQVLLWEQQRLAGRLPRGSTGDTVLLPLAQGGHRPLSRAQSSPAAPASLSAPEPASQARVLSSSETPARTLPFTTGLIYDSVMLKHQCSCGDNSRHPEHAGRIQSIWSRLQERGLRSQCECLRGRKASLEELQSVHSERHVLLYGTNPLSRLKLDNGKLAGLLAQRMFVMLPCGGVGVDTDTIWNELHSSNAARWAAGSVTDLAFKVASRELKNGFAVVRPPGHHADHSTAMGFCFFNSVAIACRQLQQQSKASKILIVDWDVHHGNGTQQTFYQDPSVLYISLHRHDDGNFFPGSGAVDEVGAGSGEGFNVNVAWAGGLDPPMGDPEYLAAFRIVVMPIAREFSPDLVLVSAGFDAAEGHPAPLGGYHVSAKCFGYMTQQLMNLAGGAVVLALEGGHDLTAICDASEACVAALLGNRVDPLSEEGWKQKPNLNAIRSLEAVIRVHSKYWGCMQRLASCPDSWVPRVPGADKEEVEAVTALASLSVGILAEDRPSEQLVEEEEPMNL

[5] = target: HDAC9 (Homo sapiens, UniProt Q9UKV0); experiment: HDAC fluorometric activity assay, HDAC9
[6] = tested on: HeLa nuclear HDACs; experiment: HDAC fluorometric activity assay, HeLa nuclear extract; conditions: read-out: IC50 HeLa Nuclear HDACs; Boc-Lys(Ac)-AMC 10 μM

T2 sequence (P56524 648-1057): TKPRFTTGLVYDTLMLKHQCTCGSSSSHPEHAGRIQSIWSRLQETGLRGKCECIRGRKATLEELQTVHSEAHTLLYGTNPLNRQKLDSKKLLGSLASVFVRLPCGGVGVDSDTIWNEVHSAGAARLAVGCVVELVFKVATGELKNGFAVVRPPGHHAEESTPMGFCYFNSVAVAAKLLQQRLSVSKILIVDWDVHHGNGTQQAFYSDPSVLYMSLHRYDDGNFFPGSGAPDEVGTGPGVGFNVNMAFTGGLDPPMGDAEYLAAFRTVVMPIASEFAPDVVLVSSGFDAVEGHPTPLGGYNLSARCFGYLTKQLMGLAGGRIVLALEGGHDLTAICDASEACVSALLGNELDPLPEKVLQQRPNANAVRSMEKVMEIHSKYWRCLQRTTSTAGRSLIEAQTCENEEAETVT
Chain of HDAC5 (Q9UQL6 whole entry): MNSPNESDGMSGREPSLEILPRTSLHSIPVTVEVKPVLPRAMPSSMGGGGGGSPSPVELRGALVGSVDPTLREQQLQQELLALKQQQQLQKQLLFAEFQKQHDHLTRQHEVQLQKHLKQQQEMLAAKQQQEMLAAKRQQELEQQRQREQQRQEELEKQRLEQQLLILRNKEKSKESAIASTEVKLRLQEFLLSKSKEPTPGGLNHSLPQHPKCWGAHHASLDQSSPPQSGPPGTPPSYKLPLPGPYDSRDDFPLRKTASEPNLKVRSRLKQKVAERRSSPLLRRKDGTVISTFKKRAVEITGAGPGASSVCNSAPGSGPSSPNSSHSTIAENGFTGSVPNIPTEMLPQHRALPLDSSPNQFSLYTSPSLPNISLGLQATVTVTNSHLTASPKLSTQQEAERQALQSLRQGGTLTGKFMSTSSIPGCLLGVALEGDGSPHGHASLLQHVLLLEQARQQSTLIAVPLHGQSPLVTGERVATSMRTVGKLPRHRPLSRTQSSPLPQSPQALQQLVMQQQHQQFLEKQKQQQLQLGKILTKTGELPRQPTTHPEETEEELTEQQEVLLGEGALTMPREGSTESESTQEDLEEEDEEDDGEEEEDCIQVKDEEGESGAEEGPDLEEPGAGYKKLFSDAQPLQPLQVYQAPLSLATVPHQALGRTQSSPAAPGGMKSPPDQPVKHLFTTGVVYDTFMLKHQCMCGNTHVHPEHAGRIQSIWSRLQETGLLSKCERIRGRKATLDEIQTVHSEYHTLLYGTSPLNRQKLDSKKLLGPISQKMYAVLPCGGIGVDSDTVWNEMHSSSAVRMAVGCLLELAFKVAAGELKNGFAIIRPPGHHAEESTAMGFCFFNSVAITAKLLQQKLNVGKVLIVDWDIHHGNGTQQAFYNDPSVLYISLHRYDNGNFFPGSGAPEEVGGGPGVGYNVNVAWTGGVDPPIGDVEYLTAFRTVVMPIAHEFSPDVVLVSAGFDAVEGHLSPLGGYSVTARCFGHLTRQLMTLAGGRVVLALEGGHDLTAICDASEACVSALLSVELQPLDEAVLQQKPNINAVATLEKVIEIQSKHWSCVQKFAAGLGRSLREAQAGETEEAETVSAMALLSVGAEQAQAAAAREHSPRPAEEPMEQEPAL
Chain of HDAC9 (Q9UKV0 whole entry): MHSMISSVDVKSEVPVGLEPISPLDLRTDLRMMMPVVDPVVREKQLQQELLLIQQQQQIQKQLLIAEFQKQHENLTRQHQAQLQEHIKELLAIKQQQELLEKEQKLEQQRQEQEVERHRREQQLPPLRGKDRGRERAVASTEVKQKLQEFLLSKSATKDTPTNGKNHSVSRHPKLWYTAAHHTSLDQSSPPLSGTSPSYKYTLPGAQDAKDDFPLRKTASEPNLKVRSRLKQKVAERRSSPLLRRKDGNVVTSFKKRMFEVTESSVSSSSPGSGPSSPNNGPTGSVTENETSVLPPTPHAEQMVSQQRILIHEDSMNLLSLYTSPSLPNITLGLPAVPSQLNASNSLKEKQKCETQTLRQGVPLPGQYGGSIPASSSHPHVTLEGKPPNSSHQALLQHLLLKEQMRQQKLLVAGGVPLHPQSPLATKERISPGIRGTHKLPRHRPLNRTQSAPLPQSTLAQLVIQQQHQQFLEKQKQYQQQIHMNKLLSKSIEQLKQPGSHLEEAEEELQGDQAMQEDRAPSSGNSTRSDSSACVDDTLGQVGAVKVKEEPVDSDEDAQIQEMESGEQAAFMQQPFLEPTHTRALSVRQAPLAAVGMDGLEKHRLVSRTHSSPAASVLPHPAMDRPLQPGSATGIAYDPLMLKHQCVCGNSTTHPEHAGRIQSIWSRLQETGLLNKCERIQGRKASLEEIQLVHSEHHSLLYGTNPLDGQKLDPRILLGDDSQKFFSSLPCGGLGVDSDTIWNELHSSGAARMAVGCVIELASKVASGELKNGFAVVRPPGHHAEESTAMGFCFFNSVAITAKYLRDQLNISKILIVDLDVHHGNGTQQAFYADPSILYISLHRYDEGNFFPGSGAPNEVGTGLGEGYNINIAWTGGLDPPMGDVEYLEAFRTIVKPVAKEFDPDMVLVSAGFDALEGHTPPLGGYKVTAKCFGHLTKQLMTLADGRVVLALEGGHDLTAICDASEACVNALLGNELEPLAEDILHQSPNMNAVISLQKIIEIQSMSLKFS
T1 sequence (P05067 672-713 limits assumed): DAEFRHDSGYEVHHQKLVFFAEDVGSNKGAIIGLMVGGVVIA

SMILES	IC50 [1] [µM]	inhibition at 10 µM [1] [%]	IC50 [2] [µM]	IC50 [3] [µM]	IC50 [4] [µM]	IC50 [5] [µM]	IC50 [6] [µM]
O=C(/C=C/c1ccc(O)c(Cl)c1)CCCCc1ccccc1 [Compound 4g]	> 10	27.8 ± 7.1	> 40	> 40	> 40	> 40	> 40
O=C(/C=C/c1cccc(O)c1)CCCCc1ccccc1 [Compound 4d]	> 10	0.7 ± 1.5	> 40	> 40	> 40	> 40	> 40
O=C(/C=C/c1ccc(O)c(Br)c1)CCCCc1ccccc1 [Compound 4h]	> 10	28.1 ± 2.1	> 40	> 40	> 40	> 40	> 40
O=C(/C=C/c1ccc(O)c(F)c1)CCCCc1ccccc1 [Compound 4f]	> 10	34.9 ± 9.2	> 40	> 40	> 40	> 40	> 40
O=C(CCCCc1ccccc1)CCc1cccc(O)c1 [Compound 5d]	> 10	-22.1 ± 2	> 40	> 40	> 40	> 40	> 40
COc1cc(CCC(=O)CCCCc2ccccc2)ccc1O [Compound 5i]	> 10	4.6 ± 11.7	> 40	> 40	> 40	> 40	> 40
O=C(/C=C/c1ccc(O)cc1)CCCCc1ccccc1 [Compound 4b]	> 10	28.7 ± 6.3	> 40	> 40	> 40	> 40	> 40
O=C(CCc1ccc(O)c(O)c1)c1ccccc1 [Compound 8a]	8.6 ± 1.1	66.4 ± 1	> 40	6.2 ± 0.4	12 ± 1	14.2 ± 1.6	> 40
O=C(CCCCc1ccccc1)CCc1ccc(O)c(F)c1 [Compound 5f]	> 10	22.1 ± 11.1	> 40	> 40	> 40	> 40	> 40
O=C(CCCCc1ccccc1)CCc1ccc(O)c(Br)c1 [Compound 5h]	> 10	1 ± 3	> 40	> 40	> 40	> 40	> 40
O=C(CCCCc1ccccc1)CCc1ccc(O)c(Cl)c1 [Compound 5g]	> 10	17.8 ± 2.8	29.9 ± 2.3	> 40	30.7 ± 0.7	> 40	> 40
O=C(/C=C/c1ccccc1)CCCCc1ccccc1 [Compound 4a]	> 10	11.9 ± 1	> 40	> 40	> 40	> 40	> 40
O=C(CCCCc1ccccc1)CCc1ccccc1 [Compound 5a]	> 10	14 ± 3	> 40	> 40	> 40	> 40	> 40

The remaining molecules from weak to strong by IC50 [1], led by results:

IC50 [1] [µM]	inhibition at 10 µM [1] [%]	IC50 [2] [µM]	IC50 [3] [µM]	IC50 [4] [µM]	IC50 [5] [µM]	IC50 [6] [µM]	SMILES
8.5 ± 0.2	59 ± 5.8	> 40	7.5 ± 0.3	7.4 ± 1.6	17.3 ± 3.2	> 40	O=C(CCCc1ccccc1)CCc1ccc(O)c(O)c1 [Compound 8d]
8.1 ± 1.2	68.6 ± 4.1	> 40	9 ± 0.2	13.7 ± 0.7	37.1 ± 0.9	> 40	O=C(CCc1ccc(O)c(O)c1)Cc1ccccc1 [Compound 8b]
8 ± 1.6	71.3 ± 3.8	> 40	8.2 ± 0.1	8.9 ± 0.4	33.8 ± 3.8	> 40	O=C(CCc1ccccc1)CCc1ccc(O)c(O)c1 [Compound 8c]
6.1 ± 1.3	76.2 ± 2.7	30.5 ± 0.7	15.9 ± 1.5	8.4 ± 0.3	17.6 ± 0.3	> 40	O=C(/C=C/c1ccc(O)c(O)c1)CCCCc1ccccc1 [Compound 4c]
3.6 ± 1	78.7 ± 6.2	> 40	7.1 ± 0.2	3.8 ± 0.4	15.4 ± 1.8	> 40	O=C(/C=C/c1cc(O)c(O)c(O)c1)CCCCc1ccccc1 [Compound 4j]
3.4 ± 0.6	91.7 ± 2.5	38.8 ± 0.1	14.6 ± 0.2	8.6 ± 1	18.1 ± 0.4	> 40	O=C(/C=C/c1cccc(O)c1O)CCCCc1ccccc1 [Compound 4e]
3.4 ± 0.4	83.7 ± 0.8	38.3	15.6 ± 0.4	13.6 ± 1.1	36.8 ± 0.7	> 40	O=C(/C=C/c1ccc(O)c(O)c1)CCc1ccccc1 [Compound 7c]
3.1 ± 0.3	74 ± 9.5	35 ± 2.8	12.6 ± 2.3	9.4 ± 0.2	17.3 ± 0.1	> 40	O=C(/C=C/c1ccc(O)c(O)c1)CCCc1ccccc1 [Compound 7d]
2.3 ± 0.2	83.1 ± 1.9	31.1 ± 0.8	13.1 ± 4.4	9.6 ± 0.2	18.4 ± 0.6	> 40	O=C(/C=C/c1ccc(O)c(O)c1)c1ccccc1 [Compound 7a]
2.1 ± 0.2	79.4 ± 2.6	39.8 ± 0.2	13.7 ± 0.8	15.4 ± 3	29.2 ± 1.7	> 40	O=C(/C=C/c1ccc(O)c(O)c1)Cc1ccccc1 [Compound 7b]

Reference: PMC6037852, “Design of Diarylheptanoid Derivatives as Dual Inhibitors Against Class IIa Histone Deacetylase and β-amyloid Aggregation” (Frontiers in Pharmacology, 2018)
